#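 96-well plates; 48 h exposure; 5 concentrations. Endpoints by linear interpolation between flanking doses. Not reached: highest tested concentration assigned. The concentration for full growth arrest is given as TGI.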
# Legend:
# Assay in all cases: growth of human tumour cells (NCI), 48 h
# 786-0 renal = test system: 786-0 renal
# A498 renal = test system: A498 renal
# A549 NSCLC = test system: A549 NSCLC
# ACHN renal = test system: ACHN renal
# BT-549 breast = test system: BT-549 breast
# CAKI-1 renal = test system: CAKI-1 renal
# CCRF-CEM leukemia = test system: CCRF-CEM leukemia
# COLO 205 colon = test system: COLO 205 colon
# DU-145 prostate = test system: DU-145 prostate
# EKVX NSCLC = test system: EKVX NSCLC
# HCC-2998 colon = test system: HCC-2998 colon
# HCT-116 colon = test system: HCT-116 colon
# HCT-15 colon = test system: HCT-15 colon
# HL-60(TB) leukemia = test system: HL-60(TB) leukemia
# HOP-62 NSCLC = test system: HOP-62 NSCLC
# HOP-92 NSCLC = test system: HOP-92 NSCLC
# HS 578T breast = test system: HS 578T breast
# HT29 colon = test system: HT29 colon
# IGROV1 ovarian = test system: IGROV1 ovarian
# K-562 leukemia = test system: K-562 leukemia
# KM12 colon = test system: KM12 colon
# LOX IMVI melanoma = test system: LOX IMVI melanoma
# M14 melanoma = test system: M14 melanoma
# MALME-3M melanoma = test system: MALME-3M melanoma
# MCF7 breast = test system: MCF7 breast
# MDA-MB-231 breast = test system: MDA-MB-231 breast
# MDA-MB-435 = test system: MDA-MB-435
# MDA-N = test system: MDA-N
# MOLT-4 leukemia = test system: MOLT-4 leukemia
# NCI-H226 lung = test system: NCI-H226 lung
# NCI-H23 lung = test system: NCI-H23 lung
# NCI-H460 lung = test system: NCI-H460 lung
# NCI-H522 lung = test system: NCI-H522 lung
# NCI/ADR-RES ovarian = test system: NCI/ADR-RES ovarian
# OVCAR-3 ovarian = test system: OVCAR-3 ovarian
# OVCAR-4 ovarian = test system: OVCAR-4 ovarian
# OVCAR-5 ovarian = test system: OVCAR-5 ovarian
# OVCAR-8 ovarian = test system: OVCAR-8 ovarian
# PC-3 prostate = test system: PC-3 prostate
# RPMI-8226 leukemia = test system: RPMI-8226 leukemia
# RXF 393 renal = test system: RXF 393 renal
# SF-268 CNS = test system: SF-268 CNS
# SF-295 CNS = test system: SF-295 CNS
# SF-539 CNS = test system: SF-539 CNS
# SK-MEL-2 melanoma = test system: SK-MEL-2 melanoma
# SK-MEL-28 melanoma = test system: SK-MEL-28 melanoma
# SK-MEL-5 melanoma = test system: SK-MEL-5 melanoma
# SK-OV-3 ovarian = test system: SK-OV-3 ovarian
# SN12C renal = test system: SN12C renal
# SNB-19 CNS = test system: SNB-19 CNS
# SNB-75 CNS = test system: SNB-75 CNS
# SR leukemia = test system: SR leukemia
# SW-620 colon = test system: SW-620 colon
# T-47D breast = test system: T-47D breast
# TK-10 renal = test system: TK-10 renal
# U251 CNS = test system: U251 CNS
# UACC-257 melanoma = test system: UACC-257 melanoma
# UACC-62 melanoma = test system: UACC-62 melanoma
# UO-31 renal = test system: UO-31 renal
smiles,measurement,setting,value
CCOC(=O)NN(C(=O)OCC)C(=C(c1ccccc1)N1CCOCC1)N(NC(=O)OCC)C(=O)OCC,TGI,786-0 renal,> 100 µM
same,TGI,A498 renal,> 100 µM
same,TGI,A549 NSCLC,> 100 µM
same,TGI,ACHN renal,> 100 µM
same,TGI,BT-549 breast,> 100 µM
same,TGI,CAKI-1 renal,> 100 µM
same,TGI,CCRF-CEM leukemia,> 100 µM
same,TGI,COLO 205 colon,> 100 µM
same,TGI,DU-145 prostate,> 100 µM
same,TGI,EKVX NSCLC,> 100 µM
same,TGI,HCC-2998 colon,> 100 µM
same,TGI,HCT-116 colon,> 100 µM
same,TGI,HCT-15 colon,> 100 µM
same,TGI,HL-60(TB) leukemia,> 100 µM
same,TGI,HOP-62 NSCLC,> 100 µM
same,TGI,HOP-92 NSCLC,> 100 µM
same,TGI,HS 578T breast,> 100 µM
same,TGI,HT29 colon,> 100 µM
same,TGI,IGROV1 ovarian,> 100 µM
same,TGI,K-562 leukemia,> 100 µM
same,TGI,KM12 colon,> 100 µM
same,TGI,LOX IMVI melanoma,> 100 µM
same,TGI,M14 melanoma,> 100 µM
same,TGI,MALME-3M melanoma,> 100 µM
same,TGI,MCF7 breast,> 100 µM
same,TGI,MDA-MB-231 breast,> 100 µM
same,TGI,MDA-MB-435,> 100 µM
same,TGI,MDA-N,> 100 µM
same,TGI,MOLT-4 leukemia,> 100 µM
same,TGI,NCI-H226 lung,> 100 µM
same,TGI,NCI-H23 lung,> 100 µM
same,TGI,NCI-H460 lung,> 100 µM
same,TGI,NCI-H522 lung,> 100 µM
same,TGI,NCI/ADR-RES ovarian,> 100 µM
same,TGI,OVCAR-3 ovarian,> 100 µM
same,TGI,OVCAR-4 ovarian,> 100 µM
same,TGI,OVCAR-5 ovarian,> 100 µM
same,TGI,OVCAR-8 ovarian,> 100 µM
same,TGI,PC-3 prostate,> 100 µM
same,TGI,RPMI-8226 leukemia,> 100 µM
same,TGI,RXF 393 renal,> 100 µM
same,TGI,SF-268 CNS,> 100 µM
same,TGI,SF-295 CNS,> 100 µM
same,TGI,SF-539 CNS,> 100 µM
same,TGI,SK-MEL-2 melanoma,> 100 µM
same,TGI,SK-MEL-28 melanoma,> 100 µM
same,TGI,SK-MEL-5 melanoma,> 100 µM
same,TGI,SK-OV-3 ovarian,> 100 µM
same,TGI,SN12C renal,> 100 µM
same,TGI,SNB-19 CNS,> 100 µM
same,TGI,SNB-75 CNS,> 100 µM
same,TGI,SR leukemia,> 100 µM
same,TGI,SW-620 colon,> 100 µM
same,TGI,T-47D breast,> 100 µM
same,TGI,TK-10 renal,> 100 µM
same,TGI,U251 CNS,> 100 µM
same,TGI,UACC-257 melanoma,> 100 µM
same,TGI,UACC-62 melanoma,> 100 µM
same,TGI,UO-31 renal,> 100 µM
CN(C)CCCNc1c2c(nc3ccc(Cl)cc13)CCCC2,TGI,786-0 renal,23.1 µM
same,TGI,A498 renal,32.6 µM
same,TGI,A549 NSCLC,39.6 µM
same,TGI,ACHN renal,45.5 µM
same,TGI,BT-549 breast,43.7 µM
same,TGI,CAKI-1 renal,65.4 µM
same,TGI,CCRF-CEM leukemia,43.7 µM
same,TGI,COLO 205 colon,21.5 µM
same,TGI,DU-145 prostate,31.9 µM
same,TGI,EKVX NSCLC,38.3 µM
same,TGI,HCC-2998 colon,16.3 µM
same,TGI,HCT-116 colon,21.5 µM
same,TGI,HCT-15 colon,32.4 µM
same,TGI,HL-60(TB) leukemia,40.1 µM
same,TGI,HOP-62 NSCLC,30.5 µM
same,TGI,HOP-92 NSCLC,27.8 µM
same,TGI,HS 578T breast,40.6 µM
same,TGI,HT29 colon,23.2 µM
same,TGI,IGROV1 ovarian,37.5 µM
same,TGI,K-562 leukemia,12 µM
same,TGI,KM12 colon,30.8 µM
same,TGI,LOX IMVI melanoma,27.3 µM
same,TGI,M14 melanoma,28.1 µM
same,TGI,MALME-3M melanoma,29.7 µM
same,TGI,MCF7 breast,25.5 µM
same,TGI,MDA-MB-231 breast,31.2 µM
same,TGI,MDA-MB-435,32.3 µM
same,TGI,MDA-N,26.9 µM
same,TGI,MOLT-4 leukemia,20.8 µM
same,TGI,NCI-H226 lung,49.7 µM
same,TGI,NCI-H23 lung,30.6 µM
same,TGI,NCI-H460 lung,23.9 µM
same,TGI,NCI-H522 lung,26.8 µM
same,TGI,NCI/ADR-RES ovarian,45 µM
same,TGI,OVCAR-3 ovarian,34.9 µM
same,TGI,OVCAR-4 ovarian,43.8 µM
same,TGI,OVCAR-5 ovarian,49 µM
same,TGI,OVCAR-8 ovarian,32.9 µM
same,TGI,PC-3 prostate,32.8 µM
same,TGI,RPMI-8226 leukemia,28.7 µM
same,TGI,RXF 393 renal,28.6 µM
same,TGI,SF-268 CNS,28.6 µM
same,TGI,SF-295 CNS,29.7 µM
same,TGI,SF-539 CNS,28.5 µM
same,TGI,SK-MEL-2 melanoma,34.5 µM
same,TGI,SK-MEL-28 melanoma,35.3 µM
same,TGI,SK-MEL-5 melanoma,27.8 µM
same,TGI,SK-OV-3 ovarian,66.2 µM
same,TGI,SN12C renal,28.9 µM
same,TGI,SNB-19 CNS,49.4 µM
same,TGI,SNB-75 CNS,30.8 µM
same,TGI,SR leukemia,6.88 µM
same,TGI,SW-620 colon,31.8 µM
same,TGI,T-47D breast,> 73 µM
same,TGI,TK-10 renal,36.4 µM
same,TGI,U251 CNS,30.1 µM
same,TGI,UACC-257 melanoma,30.7 µM
same,TGI,UACC-62 melanoma,32.1 µM
same,TGI,UO-31 renal,28 µM
c1ccc2c(c1)CN1CCCC1CN2 (configuration not stated),TGI,786-0 renal,> 100 µM
same,TGI,A498 renal,> 100 µM
same,TGI,A549 NSCLC,> 100 µM
same,TGI,ACHN renal,> 100 µM
same,TGI,BT-549 breast,> 100 µM
same,TGI,CAKI-1 renal,> 100 µM
same,TGI,CCRF-CEM leukemia,> 100 µM
same,TGI,COLO 205 colon,> 100 µM
same,TGI,DU-145 prostate,> 100 µM
same,TGI,EKVX NSCLC,> 100 µM
same,TGI,HCC-2998 colon,> 100 µM
same,TGI,HCT-116 colon,> 100 µM
same,TGI,HCT-15 colon,> 100 µM
same,TGI,HL-60(TB) leukemia,> 100 µM
same,TGI,HOP-62 NSCLC,> 100 µM
same,TGI,HOP-92 NSCLC,> 100 µM
same,TGI,HS 578T breast,> 100 µM
same,TGI,HT29 colon,> 100 µM
same,TGI,IGROV1 ovarian,> 100 µM
same,TGI,K-562 leukemia,> 100 µM
same,TGI,KM12 colon,> 100 µM
same,TGI,LOX IMVI melanoma,> 100 µM
same,TGI,M14 melanoma,> 100 µM
same,TGI,MALME-3M melanoma,> 100 µM
same,TGI,MCF7 breast,> 100 µM
same,TGI,MDA-MB-231 breast,> 100 µM
same,TGI,MDA-MB-435,> 100 µM
same,TGI,MDA-N,> 100 µM
same,TGI,MOLT-4 leukemia,> 100 µM
same,TGI,NCI-H226 lung,> 100 µM
same,TGI,NCI-H23 lung,> 100 µM
same,TGI,NCI-H460 lung,> 100 µM
same,TGI,NCI-H522 lung,> 100 µM
same,TGI,NCI/ADR-RES ovarian,> 100 µM
same,TGI,OVCAR-3 ovarian,> 100 µM
same,TGI,OVCAR-4 ovarian,> 100 µM
same,TGI,OVCAR-5 ovarian,> 100 µM
same,TGI,OVCAR-8 ovarian,> 100 µM
same,TGI,PC-3 prostate,> 100 µM
same,TGI,RPMI-8226 leukemia,> 100 µM
same,TGI,RXF 393 renal,> 100 µM
same,TGI,SF-268 CNS,> 100 µM
same,TGI,SF-295 CNS,> 100 µM
same,TGI,SF-539 CNS,> 100 µM
same,TGI,SK-MEL-2 melanoma,> 100 µM
same,TGI,SK-MEL-28 melanoma,> 100 µM
same,TGI,SK-MEL-5 melanoma,> 100 µM
same,TGI,SK-OV-3 ovarian,> 100 µM
same,TGI,SN12C renal,> 100 µM
same,TGI,SNB-19 CNS,> 100 µM
same,TGI,SNB-75 CNS,> 100 µM
same,TGI,SR leukemia,> 100 µM
same,TGI,SW-620 colon,> 100 µM
same,TGI,T-47D breast,> 100 µM
same,TGI,TK-10 renal,> 100 µM
same,TGI,U251 CNS,> 100 µM
same,TGI,UACC-257 melanoma,> 100 µM
same,TGI,UACC-62 melanoma,> 100 µM
same,TGI,UO-31 renal,> 100 µM
